The record followed here is patent publication US11155561B2, “Substituted glutarimides as Btk inhibitors” (SHANGHAI MEIZER PHARMACEUTICALS CO., LTD., priority 2017, dated 2021).

Structures are written as SMILES.

This experiment deals with Btk (Homo sapiens, UniProt Q06187). The experiment in a line: Btk protein degradation activity by Western blot in RPMI8226 cells. Format: cell-based. Also noted: degradation activity of the compound (10 μM) on Btk protein in RPMI8226 cells; endogenous in cells; host or cells: RPMI8226; key: “−” represents no degradation activity; “+” represents a degradation rate of 10%-30%; “++” represents a degradation rate of 30%-50%; “+++” represents a degradation rate of 50%-90%; “++++” means the degradation rate is greater than 90%. As to conditions: compound 10 μM, 24 hours. As to the method:
Example 6 Testing the Btk Protein Degradation Activity of Compounds by Western Blot
Cell lines: RPMI8226 Cell line was cultured in RPMI1640 medium containing 10% calf serum in a 37° C., 5% CO2, and saturated humidity incubator.
DMSO control group and compound intervention group (10 μM) were set. Cells was collected after the treatment for 24 hours, then 100 μL of pre-chilled cell lysate was added and cells were lysed on ice for 30 minutes. Total cell protein was extracted, and protein concentration was determined and quantified by […] (BCA) method. After routine gelatinization, loading, electrophoresis, then transferring to membrane and blocking, rabbit anti-human Btk (1:500) was added, and incubated at 4° C. overnight. The mixture was rinsed and then horseradish peroxidase labeled goat anti-rabbit IgG (1:5000) was added. After the rinsing it was developed by the ECL developing solution, the Bio-Rad gel imaging system was used for scanning and imaging, and the computer software was used for analysis. […] (GAPDH) was used as an internal control.
Image J software was used to analyze the gray scale of each band to calculate the Btk protein degradation rate of the compound.
On the technique in general: In western blotting, separated proteins are transferred to a membrane and probed.

Chain of Btk (Q06187 whole entry): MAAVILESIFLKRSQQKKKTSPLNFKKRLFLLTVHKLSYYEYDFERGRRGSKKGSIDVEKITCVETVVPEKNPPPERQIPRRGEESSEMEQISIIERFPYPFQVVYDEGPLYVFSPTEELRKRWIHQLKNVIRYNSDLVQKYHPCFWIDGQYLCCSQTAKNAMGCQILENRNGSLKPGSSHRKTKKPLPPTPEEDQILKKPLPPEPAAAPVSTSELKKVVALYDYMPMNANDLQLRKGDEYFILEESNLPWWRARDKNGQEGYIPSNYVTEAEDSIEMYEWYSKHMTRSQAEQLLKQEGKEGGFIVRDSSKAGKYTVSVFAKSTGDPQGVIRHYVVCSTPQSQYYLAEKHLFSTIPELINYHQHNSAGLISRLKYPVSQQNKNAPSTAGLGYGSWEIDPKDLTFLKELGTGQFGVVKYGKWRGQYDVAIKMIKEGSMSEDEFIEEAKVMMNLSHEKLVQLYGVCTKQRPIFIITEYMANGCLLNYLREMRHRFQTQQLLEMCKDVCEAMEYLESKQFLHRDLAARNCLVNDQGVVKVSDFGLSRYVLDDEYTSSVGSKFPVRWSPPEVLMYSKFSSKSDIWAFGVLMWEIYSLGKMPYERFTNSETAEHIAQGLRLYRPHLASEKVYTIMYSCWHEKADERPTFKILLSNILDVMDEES

Take `Nc1ncnc2c1c(-c1ccc(Oc3ccccc3)cc1)nn2C1CCCN(C(=O)/C=C/CCOCCOCCOc2cccc3c2C(=O)N(C2CCC(=O)NC2=O)C3=O)C1` (centres unmarked) [Compound 17]: the Degradation activity result is listed as “+++ (“+++” represents a degradation rate of 50%-90%)”. The result for `Nc1ncnc2c1c(-c1ccc(Oc3ccccc3)cc1)nn2C1CCCN(C(=O)/C=C/CCOCCOCCOCCOc2cccc3c2C(=O)N(C2CCC(=O)NC2=O)C3=O)C1` (centres unmarked) [Compound 18] reads “+++ (“+++” represents a degradation rate of 50%-90%)”. The result for `Nc1ncnc2c1c(-c1ccc(Oc3ccccc3)cc1)nn2C1CCCN(C(=O)/C=C/CCCOCCOCCOCCOc2cccc3c2C(=O)N(C2CCC(=O)NC2=O)C3=O)C1` (centres unmarked) [Compound 19] reads “+++ (“+++” represents a degradation rate of 50%-90%)”; that for `Nc1ncnc2c1c(-c1ccc(Oc3ccccc3)cc1)nn2C1CCCN(C(=O)/C=C/CCCCOCCOCCOCCOc2cccc3c2C(=O)N(C2CCC(=O)NC2=O)C3=O)C1` (centres unmarked) [Compound 20], “+++ (“+++” represents a degradation rate of 50%-90%)”; that for `Nc1ncnc2c1c(-c1ccc(Oc3ccccc3)cc1)nn2C1CCCN(C(=O)/C=C/COCCOCCOCCOCCOc2cccc3c2C(=O)N(C2CCC(=O)NC2=O)C3=O)C1` (centres unmarked) [Compound 21], “+++ (“+++” represents a degradation rate of 50%-90%)”.

Take `Nc1ncnc2c1c(-c1ccc(Oc3ccccc3)cc1)nn2C1CCCN(C(=O)/C=C/CCOCCOCCOCCOCCOc2cccc3c2C(=O)N(C2CCC(=O)NC2=O)C3=O)C1` (centres unmarked) [Compound 22]: the Degradation activity entry was “+++ (“+++” represents a degradation rate of 50%-90%)”.

For the compound `Nc1ncnc2c1c(-c1ccc(Oc3ccccc3)cc1)nn2C1CCCN(C(=O)/C=C/CCOCCOCCNc2cccc3c2C(=O)N(C2CCC(=O)NC2=O)C3=O)C1` (centres unmarked) [Compound 23], the Degradation activity result is reported as “++++ (“++++” means the degradation rate is greater than 90%)”. Then `Nc1ncnc2c1c(-c1ccc(Oc3ccccc3)cc1)nn2C1CCCN(C(=O)/C=C/CCOCCOCCOCCNc2cccc3c2C(=O)N(C2CCC(=O)NC2=O)C3=O)C1` (centres unmarked) [Compound 24], with “++++ (“++++” means the degradation rate is greater than 90%)”; and `Nc1ncnc2c1c(-c1ccc(Oc3ccccc3)cc1)nn2C1CCCN(C(=O)/C=C/CCCOCCOCCOCCNc2cccc3c2C(=O)N(C2CCC(=O)NC2=O)C3=O)C1` (centres unmarked) [Compound 25], with “++++ (“++++” means the degradation rate is greater than 90%)”; and `Nc1ncnc2c1c(-c1ccc(Oc3ccccc3)cc1)nn2C1CCCN(C(=O)/C=C/CCCCOCCOCCOCCNc2cccc3c2C(=O)N(C2CCC(=O)NC2=O)C3=O)C1` (centres unmarked) [Compound 26], with “++++ (“++++” means the degradation rate is greater than 90%)”. Consider `Nc1ncnc2c1c(-c1ccc(Oc3ccccc3)cc1)nn2C1CCCN(C(=O)/C=C/COCCOCCOCCOCCNc2cccc3c2C(=O)N(C2CCC(=O)NC2=O)C3=O)C1` (centres unmarked) [Compound 27], for which the Degradation activity entry is “++++ (“++++” means the degradation rate is greater than 90%)”. Then `Nc1ncnc2c1c(-c1ccc(Oc3ccccc3)cc1)nn2C1CCCN(C(=O)/C=C/CCOCCOCCOCCOCCNc2cccc3c2C(=O)N(C2CCC(=O)NC2=O)C3=O)C1` (centres unmarked) [Compound 28], with “+++ (“+++” represents a degradation rate of 50%-90%)”; and `C=C(CCCOCCOCCOc1cccc2c1C(=O)N(C1CCC(=O)NC1=O)C2=O)C(=O)N1CCCC(n2nc(-c3ccc(Oc4ccccc4)cc3)c3c(N)ncnc32)C1` (centres unmarked) [Compound 29], with “++++ (“++++” means the degradation rate is greater than 90%)”; and `C=C(CCOCCOCCOc1cccc2c1C(=O)N(C1CCC(=O)NC1=O)C2=O)C(=O)N1CCCC(n2nc(-c3ccc(Oc4ccccc4)cc3)c3c(N)ncnc32)C1` (centres unmarked) [Compound 30], with “++++ (“++++” means the degradation rate is greater than 90%)”. As to `C=C(CCOCCOCCOCCOc1cccc2c1C(=O)N(C1CCC(=O)NC1=O)C2=O)C(=O)N1CCCC(n2nc(-c3ccc(Oc4ccccc4)cc3)c3c(N)ncnc32)C1` (centres unmarked) [Compound 31], the Degradation activity entry is listed as “++++ (“++++” means the degradation rate is greater than 90%)”. Then `C=C(CCOCCOCCOCCOCCOc1cccc2c1C(=O)N(C1CCC(=O)NC1=O)C2=O)C(=O)N1CCCC(n2nc(-c3ccc(Oc4ccccc4)cc3)c3c(N)ncnc32)C1` (centres unmarked) [Compound 32], with “+++ (“+++” represents a degradation rate of 50%-90%)”; and `C=C(CCCOCCOCCNc1cccc2c1C(=O)N(C1CCC(=O)NC1=O)C2=O)C(=O)N1CCCC(n2nc(-c3ccc(Oc4ccccc4)cc3)c3c(N)ncnc32)C1` (centres unmarked) [Compound 33], with “++++ (“++++” means the degradation rate is greater than 90%)”. The result for `C=C(CCOCCOCCNc1cccc2c1C(=O)N(C1CCC(=O)NC1=O)C2=O)C(=O)N1CCCC(n2nc(-c3ccc(Oc4ccccc4)cc3)c3c(N)ncnc32)C1` (centres unmarked) [Compound 34] reads “++++ (“++++” means the degradation rate is greater than 90%)”; that for `C=C(CCOCCOCCOCCNc1cccc2c1C(=O)N(C1CCC(=O)NC1=O)C2=O)C(=O)N1CCCC(n2nc(-c3ccc(Oc4ccccc4)cc3)c3c(N)ncnc32)C1` (centres unmarked) [Compound 35], “++++ (“++++” means the degradation rate is greater than 90%)”; that for `C=C(CCOCCOCCOCCOCCNc1cccc2c1C(=O)N(C1CCC(=O)NC1=O)C2=O)C(=O)N1CCCC(n2nc(-c3ccc(Oc4ccccc4)cc3)c3c(N)ncnc32)C1` (centres unmarked) [Compound 36], “+++ (“+++” represents a degradation rate of 50%-90%)”. The result for `Nc1ncnc2c1c(-c1ccc(Oc3ccccc3)cc1)nn2C1CCCN(C(=O)c2cn(CCOCCOCCOc3cccc4c3C(=O)N(C3CCC(=O)NC3=O)C4=O)nn2)C1` (centres unmarked) [Compound 37] reads “++++ (“++++” means the degradation rate is greater than 90%)”; that for `Nc1ncnc2c1c(-c1ccc(Oc3ccccc3)cc1)nn2C1CCCN(C(=O)c2cn(CCOCCOCCOCCOc3cccc4c3C(=O)N(C3CCC(=O)NC3=O)C4=O)nn2)C1` (centres unmarked) [Compound 39], “++++ (“++++” means the degradation rate is greater than 90%)”. Turning to `Nc1ncnc2c1c(-c1ccc(Oc3ccccc3)cc1)nn2C1CCCN(C(=O)c2cn(CCOCCOCCOCCOCCOc3cccc4c3C(=O)N(C3CCC(=O)NC3=O)C4=O)nn2)C1` (centres unmarked) [Compound 40], the Degradation activity entry is on record as “+++ (“+++” represents a degradation rate of 50%-90%)”. Take `Nc1ncnc2c1c(-c1ccc(Oc3ccccc3)cc1)nn2C1CCCN(C(=O)c2cn(CCOCCOCCOCCNc3cccc4c3C(=O)N(C3CCC(=O)NC3=O)C4=O)nn2)C1` (centres unmarked) [Compound 43]: the Degradation activity entry is recorded as “++++ (“++++” means the degradation rate is greater than 90%)”. The result for `Nc1ncnc2c1c(-c1ccc(Oc3ccccc3)cc1)nn2C1CCCN(C(=O)c2cn(CCOCCOCCOCCOCCNc3cccc4c3C(=O)N(C3CCC(=O)NC3=O)C4=O)nn2)C1` (centres unmarked) [Compound 44] reads “+++ (“+++” represents a degradation rate of 50%-90%)”; that for `Nc1ncnc2c1c(-c1ccc(Oc3ccccc3)cc1)nn2C1CCN(CCOCCOCCOCCOc2cccc3c2C(=O)N(C2CCC(=O)NC2=O)C3=O)CC1` (centres unmarked) [control compound, reference compound], “−”.
